The values below come from patent US6472389B1, “Pyrrolo[1,2-b] pyridazine derivatives having sPLA2 inhibitory effect” (Shionogi & Co., Ltd., priority 1998, dated 2002).

The target in data set [1] is T1, recombinant human secretory phospholipase A2 (Homo sapiens, UniProt P14555).
T1 sequence (P14555 21-144): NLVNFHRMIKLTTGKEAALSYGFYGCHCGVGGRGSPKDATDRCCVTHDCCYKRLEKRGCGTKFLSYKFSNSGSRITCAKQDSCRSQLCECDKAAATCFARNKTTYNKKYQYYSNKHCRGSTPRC
In words: Inhibition test of human secretory phospholipase A2 (chromogenic assay, 96 well microtiterplate). The settings on record: sPLA2 50 ng/well, 40° C., 30 minutes, OD 405 nm, substrate 1,2-bis(heptanoylthio)-1,2-dideoxy-sn-glycero-3-phospholylcholine. It is filed as biochemical. An excerpt:
Inhibition Test of Human Secretory Phospholipase A2
In order to identify and evaluate an inhibitor of recombinant human secretory phospholipase A2, the following chromogenic assay is utilized. The assay herein has been applied for high volume screening wherein 96 well microtiterplate is used. A general explanation for such assay is described in “Analysis of Human Synovial Fluid Phospholipase A2 on Short Chain Phosphatidylcholine-Mixed Micelles: Development of a Spectrophotometric Assay Suitable for a Micortiterplate Reader” (Analytical Biochemistry, 204, pp 190-197, 1992 by Laure. J. Reynolds. Lori L. Hughes and Edward A. Dennis: the disclosure of which is incorporated herein for reference.
Bovine Serum Albumin (fatty acid free) (1 g/L) (Sigma A-7030)
pH 7.5 (adjusted with NaOH)
pH 4.5 (adjusted with acetic acid)
1 mg of sPLA2 is dissolved in 1 ml of an enzyme buffer. Thereafter, the solution is maintained at 4° C.
In the assay, 5 μl of the solution is diluted with 1995 μl of the reaction buffer to be used.
198 mg of 5,5′-dithiobis-2-[…] (manufactured by Wako Pure Chemicals) is dissolved in 100 ml of H2O
100 mg of racemic 1,2-bis(heptanoylthio)-1,2-dideoxy-sn-glycero-3-phospholylcholine is dissolved in 1 ml of chloroform.
624.9 mg of Triton-X 100 is dissolved in the reaction buffer.
Enzyme Reaction: for 1 plate of Microtiterplate
1) 0.106 ml of the substrate solution is put in a centrifugal tube, and nitrogen gas is jetted to remove the solvent. 0.54 ml of Triton-X 100 is added thereto, the mixture is stirred, thereafter it is sonified in a bath type sonification to dissolve. To the resulting product are added 17.8 m1l of the reaction buffer and 0.46 ml of DTNB, and 0.18 ml each of the admixture is poured to wells of the 96 well microtiterplate.
2) 10 μl of a test compound (or solvent blank) are added in accordance with alignment of plates which has been previously set.
3) Incubation is effected at 40° C. for 15 minutes.
4) 20 μl of an enzyme solution (sPLA2) which has been previously diluted (50 ng/well) are added to start reaction (40° C., 30 minutes).
5) Changes in absorbancy for 30 minutes are measured by a plate reader, and inhibition activity was calculated (OD: 405 nm).
6) IC50 was determined by plotting log concentration with respect to inhibition values within 10% to 90% inhibiting range.

Take `CCc1c(C(=O)C(N)=O)c2c(OCC(=O)O)cc(C3CCCCC3)nn2c1Cc1ccccc1` [Compound I-67]: the melting point (in general, the temperature of the solid-liquid transition) is 272 to 275 °C (dec.). Besides, the IC50 (as a rule, the concentration at which inhibition is half-maximal) in data set [1] was 16 nM.
Taken in the same sequence, the figures for `CCc1c(C(=O)C(N)=O)c2c(OCC(=O)OC)cc(CSc3ccccc3)nn2c1Cc1ccccc1` [Compound I-27] were 189 to 192 °C and 126 nM.
Taken in the same sequence, the figures for `CCc1c(C(=O)C(N)=O)c2c(OCC(=O)O)cc(CN3CCCC3)nn2c1Cc1ccccc1` [Compound I-59] were 228 to 231 °C (dec.) and 1080 nM.
For `CCc1c(C(=O)C(N)=O)c2c(OCC(=O)O)cc(COc3ccc(OC)cc3)nn2c1Cc1ccccc1` [Compound I-76], in that order: 218 to 219 °C and 6 nM.
`CCc1c(C(=O)C(N)=O)c2c(OCC(=O)O)cc(C)nn2c1Cc1cccc(Oc2ccccc2)c1` [Compound I-66] came in with a melting point of 188 to 190 °C. Also, in data set [1], the IC50 stood at 6 nM.
In the case of `COC(=O)COc1cc(C)nn2c(Cc3ccccc3)c(C)c(C(=O)C(N)=O)c12` [Compound I-26], the melting point is 163 to 165 °C. The IC50 in data set [1] was 177 nM.
Taken in the same sequence, the figures for `CCc1c(C(=O)C(N)=O)c2c(OCC(=O)OC)cc(COc3ccccc3)nn2c1Cc1ccccc1` [Compound I-6, Methyl (5-aminooxalyl-7-benzyl-6-ethyl-2-phenoxymethylpyrrolo[1,2-b]pyridazine-4-yloxy)acetate] were 185 to 186 °C and 238 nM.
For `Cc1c(C(=O)C(N)=O)c2c(OCC(=O)O)cc(-c3ccccc3)nn2c1Cc1ccccc1` [Compound I-17], in that order: 253 to 254 °C (dec.) and 7 nM.
Taken in the same sequence, the figures for `CCc1c(C(=O)C(N)=O)c2c(OCC(=O)O)cc(-c3ccccc3)nn2c1Cc1ccccc1` [Compound I-21] were 244 to 246 °C (dec.) and 6 nM.
On to `CCc1c(C(=O)C(N)=O)c2c(OCC(=O)O)cc(-c3ccc(OC)cc3)nn2c1Cc1ccccc1` [Compound I-64], for which the melting point was 248 to 250 °C (dec.). Moreover, in data set [1], the IC50 is 7 nM.
For `CCc1c(C(=O)C(N)=O)c2c(OCC(=O)OC)ccnn2c1Cc1ccccc1` [Compound I-1, Methyl (5-aminooxalyl-7-benzyl-6-ethylpyrrolo[1,2-b]pyridazine-4-yloxy)acetate], in that order: 210 to 212 °C and 248 nM.
Taken in the same sequence, the figures for `CCOC(=O)COc1cc(C)nn2c(Cc3ccccc3)c(C)c(C(=O)C(N)=O)c12` [Compound I-55] were 197 to 199 °C and 56 nM.
`COC(=O)COc1cc(Cc2ccccc2)nn2c(Cc3ccccc3)c(C)c(C(=O)C(N)=O)c12` [Compound I-42] gave a melting point of 204 to 206 °C. Moreover, the IC50 in data set [1] is 26 nM.
The molecule `CCc1c(C(=O)C(N)=O)c2c(OCC(=O)O)cc(COc3ccc(F)cc3)nn2c1Cc1ccccc1` [Compound I-75] came in with a melting point of 215 to 216 °C. In addition, the IC50 in data set [1] stood at 9 nM.
For `CCc1c(C(=O)C(N)=O)c2c(OCC(=O)OC)cc(C)nn2c1Cc1ccccc1` [Compound I-4, Methyl (5-aminooxalyl-7-benzyl-6-ethyl-2-methylpyrrolo[1,2-b]pyridazine-4-yloxy)acetate], in that order: 225 to 226 °C and 150 nM.
Turning to `CCc1c(C(=O)C(N)=O)c2c(OCC(=O)O)cc(CN=[N+]=[N-])nn2c1Cc1ccccc1` [Compound I-80], the melting point was 199 to 200 °C (dec.). In addition, in data set [1], the IC50 is 13 nM.
Taken in the same sequence, the figures for `CCc1c(C(=O)C(N)=O)c2c(OCC(=O)O)cc(CN3CCN(C)CC3)nn2c1Cc1ccccc1` [Compound I-61] were 249 to 250 °C (dec.) and 2610 nM.
For `CCc1c(C(=O)C(N)=O)c2c(OCC(=O)OC)cc(C)nn2c1Cc1cccc(Oc2ccccc2)c1` [Compound I-36], in that order: 201 to 202 °C and 102 nM.
For `CCc1c(C(=O)C(N)=O)c2c(OCC(=O)OC)cc(-c3ccccc3)nn2c1Cc1ccc(F)cc1` [Compound I-13], in that order: 253 to 255 °C and 238 nM.
Take `CCc1c(C(=O)C(N)=O)c2c(OCC(=O)O)ccnn2c1Cc1ccccc1` [Compound I-3, Sodium (5-aminooxalyl-7-benzyl-6-ethylpyrrolo[1,2-b]pyridazine-4-yloxy)acetate]: in data set [1], the half-inhibitory concentration (IC50) turned out to be 13 nM.
`CCc1cc(OCC(=O)OC)c2c(C(=O)C(N)=O)c(CC)c(Cc3ccccc3)n2n1` [Compound I-8]: the melting point lay within 183 to 185 °C. For the same molecule, the IC50 in data set [1] came out at 184 nM.
Taken in the same sequence, the figures for `CCc1c(C(=O)C(N)=O)c2c(OCC(=O)OC)cc(COc3ccc(OC)cc3)nn2c1Cc1ccccc1` [Compound I-46] were 167 to 168 °C and 268 nM.
On to `COC(=O)COc1cc(Cc2ccccc2)nn2c(C)c(C)c(C(=O)C(N)=O)c12` [Compound I-51], for which the melting point was in the range of 199 to 201 °C. Moreover, the IC50 in data set [1] was determined as 25600 nM.
Take `CCc1c(C(=O)C(N)=O)c2c(OCC(=O)OC)cc(-c3ccccc3)nn2c1Cc1ccccc1F` [Compound I-15]: the melting point fell in the range of 244 to 246 °C. The IC50 in data set [1] is 97 nM.
For `COCc1cc(OCC(=O)OC)c2c(C(=O)C(N)=O)c(C)c(Cc3ccccc3)n2n1` [Compound I-44], in that order: 228 to 229 °C (dec.) and 315 nM.
For `CCc1cc(OCC(=O)O)c2c(C(=O)C(N)=O)c(C)c(Cc3ccccc3)n2n1` [Compound I-70], in that order: 200 to 201 °C and 9 nM.
For `CCc1cc(OCC(=O)OC)c2c(C(=O)C(N)=O)c(C)c(Cc3ccccc3)n2n1` [Compound I-40], in that order: 194 to 196 °C and 99 nM.
In the case of `Cc1c(C(=O)C(N)=O)c2c(OCC(=O)O)cc(Cc3ccccc3)nn2c1C` [Compound I-81], the melting point was 232 to 233 °C (dec.). Besides, the IC50 in data set [1] was 8190 nM.
Taken in the same sequence, the figures for `CCCc1cc(OCC(=O)O)c2c(C(=O)C(N)=O)c(CC)c(Cc3ccccc3)n2n1` [Compound I-19] were 231 to 233 °C (dec.) and 10 nM.
For `CCc1c(C(=O)C(N)=O)c2c(OCC(=O)OC)cc(CN3C(=O)CCC3=O)nn2c1Cc1ccccc1` [Compound I-49], in that order: 188 to 189 °C and 7810 nM.
Taken in the same sequence, the figures for `CCc1c(C(=O)C(N)=O)c2c(OCC(=O)OCc3ccccc3)cc(CN3CCN(C)CC3)nn2c1Cc1ccccc1` [Compound I-31] were 202 to 203 °C and 15600 nM.
Turning to `COCc1cc(OCC(=O)O)c2c(C(=O)C(N)=O)c(C)c(Cc3ccccc3)n2n1` [Compound I-74], the melting point was 197 to 198 °C. The IC50 in data set [1] stood at 15 nM.
Taken in the same sequence, the figures for `CCc1c(C(=O)C(N)=O)c2c(OCC(=O)O)cc(-c3ccc(F)cc3)nn2c1Cc1ccccc1` [Compound I-63] were 250 to 253 °C (dec.) and 6 nM.
For `CCc1c(C(=O)C(N)=O)c2c(OCC(=O)O)cc(CN3CCOCC3)nn2c1Cc1ccccc1` [Compound I-60], in that order: 167 to 168 °C and 365 nM.
`CCc1c(C(=O)C(N)=O)c2c(OCC(=O)O)cc(C(F)(F)F)nn2c1Cc1ccc(F)cc1` [Compound I-24] showed a melting point of 248 to 250 °C. In addition, the IC50 in data set [1] was determined as 21 nM.
For `COC(=O)COc1cc(C)nn2c(Cc3ccc(-c4ccccc4)cc3)c(C)c(C(=O)C(N)=O)c12` [Compound I-53], in that order: 234 to 236 °C and 3740 nM.
On to `CCc1c(C(=O)C(N)=O)c2c(OCC(=O)O)cc(C)nn2c1Cc1ccccc1` [Compound I-5, (5-aminooxalyl-7-benzyl-6-ethyl-2-methylpyrrolo[1,2-b]pyridazine-4-yloxy)acetic acid], for which the IC50 in data set [1] was determined as 11 nM.
The same measure, in the same setting: under `CCc1c(C(=O)C(N)=O)c2c(OCC(=O)O)ccnn2c1Cc1ccccc1` [Compound I-2, (5-aminooxalyl-7-benzyl-6-ethylpyrrolo[1,2-b]pyridazine-4-yloxy)acetic acid] stands 9 nM.
